{"source": "paper PMC8528301", "about": "(PLoS ONE, 2021)", "key": {"[1]": {"settings": "serum", "from_the_text": "(§1) To generate VD3 deficient and sufficient mice, day 4–5 estrus (E5-E6) pregnant C57BL/6J female mice from Jackson Laboratories (Bar Harbor, ME) were kept on the VD3 deficient (Harlan catalog no. 5A69, 0 IU of vitamin D) and VD3 sufficient diets, (catalog. No. 5BV8, 3.3 IU of vitamin D) to develop vitamin D deficient and vitamin D sufficient mice, respectively. Pregnant dams were maintained on these diets throughout pregnancy, and after parturition, and pups were maintained on the corresponding diets after weaning as described in [16]. The pups were age matched and both male and female, VD3 deficient and VD3 sufficient mice were used for Cyp3a expression, pharmacokinetic and efficacy studies.\nTo observe the effect of vitamin D status on hCYP3A4 expression, cryopreserved hCYP3A4 transgenic (tg) mouse sperm was used to re-derive the humanized CYP3A4 transgenic mouse model. Human CYP3A4 transgenic mice were obtained from the laboratory of Dr. Frank Gonzalez (Laboratory of Metabolism, Center for Cancer Research, National Cancer Institute, National Institutes of Health, Bethesda). To generate hCYP3A4-Tg VD3 deficient and sufficient mice, E5-E6 hCYP3A4-Tg pregnant female mice were kept on VD3 deficient and VD3 sufficient diets throughout pregnancy and after parturition as described for C57BL/6J mice above. Pups were maintained on the corresponding diets after weaning and were euthanized at 12 weeks of age for tissue collection, blood was collected by cardiac puncture and serum was isolated and stored at -80°C. Tissues such as intestine (duodenum), liver and kidney were harvested and stored in RNA later at -20°C.\nSerum samples from all animals in this manuscript were collected but only a few samples were randomly selected across studies and sent to the Veterinary Diagnostic Laboratory at Michigan State University (Lansing, MI) for serum 25-(OH) VD3 analysis."}, "[2]": {"settings": "no reference given, cited from earlier work"}, "[3]": {"test_system": "duodenal mCyp3a and drug efflux transporter mRNA expression", "experiment": "qPCR of Cyp3a and efflux transporter mRNA in duodenum of VD3 sufficient vs deficient C57BL/6 mice", "assay_type": "in vivo, mouse", "settings": "n=3", "from_the_text": "as §1\nMouse intestine (duodenum), liver and kidney tissues stored in RNA later at -20°C were used for RNA isolation. Trizol (Ambion Life technologies, CA, USA or Thermo Fisher scientific, CA, USA) was used to extract RNA according to the manufacturers protocol. Sterile Omni tips (OMNI International, GA, USA) were used to homogenize the tissue using Omni tissue homogenizer. 500 ng of RNA was used to generate cDNA using the Thermoscript™ RT-PCR system (Invitrogen ThermoFisher, CA, USA). The cDNA was diluted to a total volume of 70 μL. Primers used for the amplification: […]\nReal-time PCR quantification was performed using SYBR GreenER™ qPCR supermix for ABI PRISM Instrument (Life Technologies, Grand Island, NY) according to manufacturer’s instructions. Samples were run at the following conditions: 95°C for 15 min, 40 cycles of 92°C for 30 sec, 60°C for 30 sec, 68°C for 1 min followed by a dissociation step. The relative amounts of mRNAs in each sample were normalized to Villin or Gapdh for intestine samples or Gapdh values for liver and kidney samples to control for quality of the mRNA. Comparative CT (ΔΔCt) method was used to determine quantitative PCR values.\nFig 1 Cyp and transporter gene expression in duodenum of VD3 sufficient and deficient mice. Influence of VD3 deficiency on duodenal mCyp3a11, mCyp3a13, mCyp3a44 (A,B) and drug efflux transporter mRNA expression (C,D) in 12 wk old C57BL/6 mice (A, C)) and hCYP3A4-tg mice (B,D) (male, n = 3 and female, n = 3/strain). Data are expressed as mean (bars) + SD (error bars) fold change in mRNA expression in deficient mice relative to each mRNAs expression in sufficient mice set as one. Villin was used as an internal control to normalize the target gene expression data. Mann-Whitney nonparametric test on GraphPad was used to determine significance between the groups (**p<0.01, *p<0.05)."}, "[4]": {"settings": "female C57BL/6, VD3 deficient vs sufficient = 1, Villin"}, "[5]": {"settings": "male C57BL/6, VD3 deficient vs sufficient = 1, Villin"}}, "note": "Like-named read-outs stand apart in the source and are kept apart here."}
{"smiles": "C=C1CC[C@H](O)C/C1=C/C=C1\\CCC[C@]2(C)[C@@H]([C@H](C)CCCC(C)(C)O)CC[C@@H]12", "note": "[25-(OH) VD3]", "values": [{"measurement": "Mean (25-(OH) VD3", "setting": "[1]; C57BL/6, VD3 Deficient, n=6", "value": 12, "unit": "nmol/L"}, {"measurement": "Mean (25-(OH) VD3", "setting": "[1]; C57BL/6, VD3 Sufficient, n=2", "value": 324.50, "unit": "nmol/L"}, {"measurement": "Mean (25-(OH) VD3", "setting": "[1]; hCYP3A4-tg, VD3 Deficient, n=4", "value": 14.75, "unit": "nmol/L"}, {"measurement": "Mean (25-(OH) VD3", "setting": "[1]; hCYP3A4-tg, VD3 Sufficient, n=4", "value": 219, "unit": "nmol/L"}, {"measurement": "half-life", "setting": "[2]; serum 25(OH)VD3", "value": 15, "unit": "days"}]}
{"smiles": "C=C1CC[C@H](O)C/C1=C/C=C1\\CCC[C@]2(C)[C@@H]([C@H](C)CCCC(C)C)CC[C@@H]12", "note": "[VD3, Vitamin D3]", "values": [{"measurement": "avg fold chnge Cyp3a11 mRNA", "setting": "[3]; [4]", "value": 0.2614, "unit": "fold"}, {"measurement": "avg fold chnge cyp3a13 mRNA", "setting": "[3]; [4]", "value": 0.2206, "unit": "fold"}, {"measurement": "avg fold chnge cyp3a25 mRNA", "setting": "[3]; [4]", "value": 1.068, "unit": "fold"}, {"measurement": "avg fold chnge cyp3a44 mRNA", "setting": "[3]; [4]", "value": 0.139, "unit": "fold"}, {"measurement": "avg fold change Cyp3a11 mRNA", "setting": "[3]; male C57BL/6, VD3 deficient (GCD) vs VD3 sufficient = 1, normalised to Villin", "value": 0.299, "unit": "fold"}, {"measurement": "avg fold change Cyp3a13 mRNA", "setting": "[3]; [5]", "value": 0.1229, "unit": "fold"}, {"measurement": "avg fold change Cyp3a25 mRNA", "setting": "[3]; [5]", "value": 0.2366, "unit": "fold"}, {"measurement": "avg fold change Cyp3a41 mRNA", "setting": "[3]; [5]", "value": 0.2185, "unit": "fold"}, {"measurement": "avg fold change Cyp3a44 mRNA", "setting": "[3]; [5]", "value": 0.1467, "unit": "fold"}, {"measurement": "avg fold change bcrp mRNA", "setting": "[3]; [5]", "value": 0.5071, "unit": "fold"}, {"measurement": "avg fold change mPXR mRNA", "setting": "[3]; [5]", "value": 0.5697, "unit": "fold"}, {"measurement": "avg fold change mVDR mRNA", "setting": "[3]; [5]", "value": 0.3209, "unit": "fold"}, {"measurement": "avg fold change mdr1a mRNA", "setting": "[3]; [5]", "value": 0.5457, "unit": "fold"}]}
{"smiles": "C=C1/C(=C\\C=C2/CCC[C@]3(C)[C@@H]([C@H](C)CCCC(C)(C)O)CC[C@@H]23)C[C@@H](O)C[C@@H]1O", "note": "[1,25 (OH)2 VD3]", "values": [{"measurement": "half-life", "setting": "[2]; serum 1,25 (OH)2 VD3, biologically short lived", "value": "~ 15 hours"}]}
